Usually pIC50 stands for −log10 of the IC50, conventionally taken in molar units.

pIC50: −log10 of the molar value.

T1 sequence (P15381 whole entry): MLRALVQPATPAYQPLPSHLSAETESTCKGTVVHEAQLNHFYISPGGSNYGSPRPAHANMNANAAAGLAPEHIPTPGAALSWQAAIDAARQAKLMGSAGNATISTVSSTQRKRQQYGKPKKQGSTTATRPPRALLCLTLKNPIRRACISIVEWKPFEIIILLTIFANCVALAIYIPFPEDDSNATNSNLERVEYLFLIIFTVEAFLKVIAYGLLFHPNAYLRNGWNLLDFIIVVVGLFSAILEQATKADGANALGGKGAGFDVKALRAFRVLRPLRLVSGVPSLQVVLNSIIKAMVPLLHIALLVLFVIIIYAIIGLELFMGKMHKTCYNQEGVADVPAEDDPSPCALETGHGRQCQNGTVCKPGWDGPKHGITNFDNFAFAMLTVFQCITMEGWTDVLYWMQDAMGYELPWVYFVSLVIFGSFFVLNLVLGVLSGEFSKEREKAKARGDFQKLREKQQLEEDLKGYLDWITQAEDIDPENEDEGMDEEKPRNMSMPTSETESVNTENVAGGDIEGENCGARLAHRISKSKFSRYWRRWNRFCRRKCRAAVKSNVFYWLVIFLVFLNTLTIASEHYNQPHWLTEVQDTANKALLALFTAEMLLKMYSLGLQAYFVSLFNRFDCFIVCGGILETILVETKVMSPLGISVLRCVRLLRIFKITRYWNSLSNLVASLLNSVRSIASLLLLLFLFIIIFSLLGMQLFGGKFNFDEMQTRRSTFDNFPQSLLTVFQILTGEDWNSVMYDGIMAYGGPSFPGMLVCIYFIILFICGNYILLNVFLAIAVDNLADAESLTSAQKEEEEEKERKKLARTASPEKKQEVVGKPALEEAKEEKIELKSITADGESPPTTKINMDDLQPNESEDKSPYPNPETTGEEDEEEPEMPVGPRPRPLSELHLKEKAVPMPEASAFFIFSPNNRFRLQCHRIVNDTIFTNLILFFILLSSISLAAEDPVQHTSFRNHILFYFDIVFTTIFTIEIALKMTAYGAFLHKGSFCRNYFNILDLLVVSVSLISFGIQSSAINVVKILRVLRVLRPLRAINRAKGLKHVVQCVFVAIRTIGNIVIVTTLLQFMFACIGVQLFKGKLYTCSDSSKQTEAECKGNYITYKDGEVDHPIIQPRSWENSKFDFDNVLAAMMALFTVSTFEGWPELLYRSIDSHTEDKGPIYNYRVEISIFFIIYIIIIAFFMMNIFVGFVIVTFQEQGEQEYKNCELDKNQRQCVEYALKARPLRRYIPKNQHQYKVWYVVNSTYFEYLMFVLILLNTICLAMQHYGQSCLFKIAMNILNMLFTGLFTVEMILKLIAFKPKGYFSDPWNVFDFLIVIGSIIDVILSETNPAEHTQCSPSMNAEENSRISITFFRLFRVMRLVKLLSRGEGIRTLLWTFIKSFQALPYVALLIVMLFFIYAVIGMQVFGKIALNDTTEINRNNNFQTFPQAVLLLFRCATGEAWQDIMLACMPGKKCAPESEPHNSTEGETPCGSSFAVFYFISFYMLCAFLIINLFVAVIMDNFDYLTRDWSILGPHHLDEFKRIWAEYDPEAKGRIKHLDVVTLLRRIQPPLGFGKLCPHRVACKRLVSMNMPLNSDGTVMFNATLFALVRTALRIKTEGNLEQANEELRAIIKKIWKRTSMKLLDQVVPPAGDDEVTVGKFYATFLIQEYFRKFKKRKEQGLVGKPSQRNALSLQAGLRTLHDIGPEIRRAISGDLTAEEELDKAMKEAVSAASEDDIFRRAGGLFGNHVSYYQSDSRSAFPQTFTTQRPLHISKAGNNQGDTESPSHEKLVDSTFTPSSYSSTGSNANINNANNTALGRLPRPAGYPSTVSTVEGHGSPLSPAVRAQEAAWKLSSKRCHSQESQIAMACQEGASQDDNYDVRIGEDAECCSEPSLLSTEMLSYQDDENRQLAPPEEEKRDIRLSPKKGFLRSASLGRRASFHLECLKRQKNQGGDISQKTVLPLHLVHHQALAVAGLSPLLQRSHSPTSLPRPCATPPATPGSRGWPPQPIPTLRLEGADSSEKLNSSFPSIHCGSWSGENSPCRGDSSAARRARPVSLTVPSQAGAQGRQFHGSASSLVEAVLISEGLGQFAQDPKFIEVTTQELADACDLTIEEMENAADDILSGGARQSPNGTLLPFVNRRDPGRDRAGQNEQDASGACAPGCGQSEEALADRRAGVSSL

The first experiment concerns the target T1, Calcium Channel (3H-nitrendipine binding site, heart membranes) (Oryctolagus cuniculus, UniProt P15381).
T1 construct: from tissue; host or cells: rabbit heart membrane preparation
Kind of experiment: Assay for Inhibition of Nitrendipine Binding (3H-nitrendipine, rabbit heart membranes). The settings on record: Table 1, Formula Ii compounds, 3H-nitrendipine 0.05-0.50 nM, 90 minutes. On the procedure:
Female, New Zealand white rabbits (1-2 kg) are sacrificed by cervical dislocation, and the heart is immediately removed, cleaned and chopped into small pieces. The tissue is homogenized in 5× times volume of 0.05M Hepes buffer, pH 7.4. The homogenate is centrifuged at 4000g for 10 minutes, and the supernatant is re-centrifuged at 42,000× g for 90 minutes. The resulting membrane pellet is resuspended (0.7 ml/g weight) in 0.05M Hepes, pH 7.4 and stored at […] until used. Each tube of the binding assay contains ^3H-nitrendipine (0.05-0.50 nM), buffer, membranes (0.10 ml), and test compound in a total volume of 1.0 ml. After 90 minutes at 4≦ C., the bound nitrendipine is separated from the unbound by filtration on Whatman GF/C filters. After rinsing, the filters are dried and counted in a liquid scintillation counter.
Non-specific binding of ^3H-nitrendipine (that amount bound in the presence of excess unlabelled nitrendipine) is subtracted from the total bound to obtain specifically bound radiolabeled nitrendipine. The amount of specifically bound nitrendipine in the presence of a test compound is compared to that amount bound in the absence of a compound. A percent displacement (or inhibition) can then be calculated.
On to `CC1=C(C(=O)OCCOC(=O)C(N)CCCCN)C(c2c(F)cccc2Cl)C2=C(CS(=O)(=O)CCS2(=O)=O)N1` (single isomer, unassigned) [Compound 64], for which the pIC50 is 4.29.

Turning to `CC1=C(C(=O)OCCOC(=O)c2ccc(C(F)(F)F)cc2)C(c2c(F)cccc2Cl)C2=C(CS(=O)(=O)CCS2(=O)=O)N1` (centres unmarked) [Compound 11, 5H-[1,4]dithiepino[6,5-b]pyridine-8-carboxylic acid, 9-(2-chloro-6-fluorophenyl)-2,3,6,9-tetrahydro-7-methyl-, 2-[[4-(trifluoromethyl)benzoyl]oxy]ethyl ester, 1,1,4,4-tetraoxide], the pIC50 is 7.32.

As for `CC1=C(C(=O)OCCOC(=O)CCc2ccccc2)C(c2c(F)cccc2Cl)C2=C(CS(=O)(=O)CCS2(=O)=O)N1` (centres unmarked) [Compound 12], the pIC50 is 7.32. On to `CC1=C(C(=O)OCCOC(=O)c2cccc(C#N)c2)C(c2c(F)cccc2Cl)C2=C(CS(=O)(=O)CCS2(=O)=O)N1` (centres unmarked) [Compound 18], for which the pIC50 is 7.21.

On to `COc1ccc(C(=O)OCCOC(=O)C2=C(C)NC3=C(C2c2c(F)cccc2Cl)S(=O)(=O)CCS(=O)(=O)C3)cc1` (centres unmarked) [Compound 20], for which the pIC50 was 7.16. `CC1=C(C(=O)OCc2oc(=O)oc2C)C(c2cccc(Cl)c2Cl)C2=C(CS(=O)(=O)CCS2(=O)=O)N1` (centres unmarked) [Compound 21]: the pIC50 was 7.14. In the case of `CC1=C(C(=O)OCCOC(=O)C(CCCCNC(=O)OCc2ccccc2)NC(=O)OC(C)(C)C)C(c2c(F)cccc2Cl)C2=C(CS(=O)(=O)CCS2(=O)=O)N1` (centres unmarked) [Compound 29], the pIC50 was 6.76. On to `CC1=C(C(=O)OCCOC(=O)C(Cc2ccccc2)NC(=O)c2ccccc2)C(c2c(F)cccc2Cl)C2=C(CS(=O)(=O)CCS2(=O)=O)N1` (centres unmarked) [Compound 38], for which the pIC50 is 6.45.

Consider `CC1=C(C(=O)OCCOC(=O)C(NC(=O)OC(C)(C)C)C(C)C)C(c2c(F)cccc2Cl)C2=C(CS(=O)(=O)CCS2(=O)=O)N1` (centres unmarked) [Compound 40], for which the pIC50 is 6.39. For `CC1=C(C(=O)OC2CCOC2=O)C(c2cccc(Cl)c2Cl)C2=C(CS(=O)(=O)CCS2(=O)=O)N1` (centres unmarked) [Compound 43], the pIC50 was 6.34.

`CC1=C(C(=O)OCCOC(=O)c2cccnc2)C(c2c(F)cccc2Cl)C2=C(CS(=O)(=O)CCS2(=O)=O)N1` (centres unmarked) [Compound 44]: the pIC50 was 6.30. `CC1=C(C(=O)OCCOC(=O)C(Cc2ccccc2)N(C)C)C(c2c(F)cccc2Cl)C2=C(CS(=O)(=O)CCS2(=O)=O)N1` (centres unmarked) [Compound 45]: the pIC50 was 6.27. For `CC1=C(C(=O)OCCOC(=O)C(C)C)C(c2c(F)cccc2Cl)C2=C(CS(=O)(=O)CCS2(=O)=O)N1` (centres unmarked) [Compound 56], the pIC50 was 5.63. Take `CC1=C(C(=O)OCCOC(=O)C2CCOC2=O)C(c2c(F)cccc2Cl)C2=C(CS(=O)(=O)CCS2(=O)=O)N1` (centres unmarked) [Compound 62]: the pIC50 was 4.71. With `CC1=C(C(=O)OCCOC(=O)CCN2CCCCC2)C(c2c(F)cccc2Cl)C2=C(CS(=O)(=O)CCS2(=O)=O)N1` (centres unmarked) [Compound 63], the pIC50 was 4.31.

Staying with this experiment, now noted: Table 2, Formula Ij compounds, 3H-nitrendipine 0.05-0.50 nM, 90 minutes.
On to `CC1=C(C(=O)OCCOC(=O)c2cccc(C#N)c2)C(c2c(F)cccc2Cl)C2=C(CS(=O)(=O)CCCS2(=O)=O)N1` (centres unmarked) [Compound 68, 2H,6H-[1,5]dithiocino[3,2-b]pyridine-9-carboxylic acid, 10-(2-chloro-6-fluorophenyl)-3,4,7,10-tetrahydro-8-methyl-, 2-[(3-cyanobenzoyl)oxy]ethyl ester, 1,1,5,5-tetraoxide], for which the pIC50 is 7.31.

With `CC1=C(C(=O)OCCOC(=O)C2CCCCC2)C(c2c(F)cccc2Cl)C2=C(CS(=O)(=O)CCCS2(=O)=O)N1` (centres unmarked) [Compound 70, 2H,6H-[1,5]dithiocino[3,2-b]pyridine-9-carboxylic acid, 10-(2-chloro-6-fluorophenyl)-3,4,7,10-tetrahydro-8-methyl-, 2-[(cyclohexylcarbonyl)oxy]ethyl ester, 1,1,5,5-tetraoxide], the pIC50 was 7.19.
